This note sets out measurements from patent US7723066B1, “Processes for in vivo production of astaxanthin and phaffia rhodozyma yeast of enhanced astaxanthin content” (Igene Biotechnology, Inc., priority 1988, dated 2010).

Like-named read-outs stand apart in the source and are kept apart here.

What all share (format): cell-based, Phaffia rhodozyma
Assay [1] concerns P. rhodozyma. In words: Inhibitors incorporated into yeast malt extract medium: killing, growth and colony colour. The following applies: nicotine 1 mM, imidazole 4 mM, 2-methylimidazole 1 mM, morpholine 10 mM.
For assay [2], the system named is P. rhodozyma. The assay is described as above. The following applies: for influence on pigmentation of P. rhodozyma: YM plates or liquid growth media; for killing of P. rhodozyma: incorporated into yeast malt extract medium agar. The source says:
The inventors also tried treating P. rhodozyma with several inhibitors of electron transport including thenoyltrifluoroacetone (TTFA), antimycin A, and sodium cyanide.

In assay [3] the test system is P. rhodozyma. In words: Morphological selection on agent-containing medium, colonies assayed for pigment. The source says:
More specifically, the inventors have discovered that by subjecting a naturally occurring or mutated strain of P. rhodozyma to growth in the presence of a metabolic pathway inhibitor, particularly a main respiratory pathway inhibitor, in the presence of an influence such as an agent or environmental condition which triggers a secondary respiratory pathway, or morphological selection using a selecting agent, and particularly an antibiotic, a cytochrome B inhibitor, or a terpenoid synthetic pathway inhibitor as a selecting agent, a directed and specific selection of highly pigmented P. rhodazyma takes place. For example, plating of the pink yeast, P. rhodozyma, to agar containing an antibiotic, a cytochrome B inhibitor, or a terpenoid synthetic pathway inhibitor gave rise to colonies of unusual morphology characterized by a nonpigmented lower smooth surface that developed highly pigmented vertical papillae after 1 to 2 months.
The sequence of mutations and selections with which the highest astaxanthin yielding strains to date have been produced is shown in FIG. 2. With reference to FIG. 2, the naturally occurring parent 67-385, obtained from the American Type Culture Collection ATCC No. 24230, was assayed as containing 200-600 μg/g dry weight of yeast in 6 day growth. 67-385 was subjected to antimycin selection, and higher pigmented progeny, referred to as 10′-887J0 were obtained. The first mutant papillus dissected from the basal colony contained approx. 700 μg total carotenoid/g yeast compared to the parental strain which had 300 to 400 μg/g. 10′-887J0 was assayed to have an astaxanthin content of 960 μg/g dry weight of yeast in 6 day growth. 10′-887J0 was replated to YM agar containing 50 μM antimycin and second generation antimycin colonies were selected. One of these produced 1200 μg/g and another produced 1450 μg/g. […]
After harvest from 30 ml growth medium, the cells are washed in water and resuspended in 30 ml of water. The optical density is measured to determine growth. […]

Assay [4] has as its system P. rhodozyma. The source says: One of the selected progeny (IGI-887J0; see FIG. 2 and accompanying text) was characterized physiologically.
Sensitivities of the mutants to various respiratory inhibitors including antimycin A, theonyltrifluoroacetine, sodium azide, hydrogen peroxide and sodium cyanide were examined. These inhibitors affect different regions of the respiratory chain.

As to `Cc1ncc[nH]1` [2-methylimidazole], in the assay on P. rhodozyma [1], the “color of the colonies” value is on record as “did visually change the color of the colonies” and the growth entry is recorded as “did not impair growth”.

As to `c1c[nH]cn1` [imidazole], in the assay on P. rhodozyma [2], the “color of the colonies” value was “did visually change the color of the colonies” and the growth entry is on record as “did not impair growth”.

Consider `C[C@@]1(O)CCOC(=O)C1` [mevalonic acid lactone], for which the “pigment of resistant mutant” value with P. rhodozyma [3] (25 mM mevalonic acid lactone resistant mutant of NTG-mutagenized ATCC 24202, control 275 μg/g) worked out at 540 µg/g. On to `C=C(C)[C@H]1Cc2c(ccc3c2O[C@@H]2COc4cc(OC)c(OC)cc4[C@@H]2C3=O)O1` [rotenone], for which the “influence on pigmentation of P. rhodozyma” value in the assay with P. rhodozyma [2] is “do not seem to significantly influence pigmentation”.

Take `OO` [hydrogen peroxide]: in the assay on P. rhodozyma [4], the “sensitivity of mutant compared with natural isolate” value was “more sensitive to killing” and the “sensitivity of the antimycin mutants compared with parental strain” value (from here on “sensitivity … compared with parental strain”) is given as “quite sensitive”.

Take `CC(=O)N1CCN(c2ccc(OCC3COC(Cn4ccnc4)(c4ccc(Cl)cc4Cl)O3)cc2)CC1` (centres unmarked) [ketoconazole]: the “killing of P. rhodozyma” value with P. rhodozyma [2] was “significant killing”. For `CN1CCCC1c1cccnc1` (centres unmarked) [nicotine], in the assay on P. rhodozyma [1], the “color of the colonies” value was “did visually change the color of the colonies” and the growth result is “did not impair growth”. Regarding `C[C@@H]1[C@H](O)[C@@H](C)/C=C/C=C/CC/C=C/C=C/C=C/C=C/C(O[C@H]2O[C@H](C)[C@@H](O)[C@H](N)[C@@H]2O)CC2O[C@](O)(CC(O)C(O)CCC(O)CC(O)CC(O)CC(=O)O[C@H]1C)CC(O)C2C(=O)O` (some centres unmarked) [nystatin], the “pigment of highest mutant” value in the assay with P. rhodozyma [3] (mutant of ATCC 24202 from 3 and 5 μg/ml nystatin, control 270 μg/g) worked out at 400 µg/g. Consider tunicamycin, for which the “pigment of resistant mutant” value with P. rhodozyma [3] (8 μg/ml tunicamycin resistant mutant of ATCC 24202, control 270 μg/g) was 610 µg/g. `C1COCCN1` [morpholine]: in the assay with P. rhodozyma [2], the “color of the colonies” value was “did visually change the color of the colonies” and the growth entry is “did not impair growth”. With `Clc1ccc(COC(Cn2ccnc2)c2ccc(Cl)cc2Cl)c(Cl)c1` (centres unmarked) [miconazole], in the assay with P. rhodozyma [2], the “killing of P. rhodozyma” value is given as “significant killing”.

With `O=C(CC(=O)C(F)(F)F)c1cccs1` [TTFA, thenoyltrifluoroacetone], the “sensitivity … compared with parental strain” value with P. rhodozyma [4] (antimycin-isolated mutants) is on record as “quite sensitive”. In addition, in the assay with P. rhodozyma [4] (strain IGI-887J0), the “sensitivity of mutant compared with natural isolate” value is recorded as “increased sensitivities”. Besides, in the assay on P. rhodozyma [2], the “influence on pigmentation of P. rhodozyma” value is “do not seem to significantly influence pigmentation”. Further, the “killing of naturally occurring P. rhodozyma by inhibitors of electron transport” value in the assay on P. rhodozyma [2] (naturally occurring P. rhodozyma) is on record as “substantially killed by low concentrations”. Take `[N-]=[N+]=[N-].[Na+]` [azide, sodium azide]: in the assay with P. rhodozyma [4], the “sensitivity of mutant compared with natural isolate” value is listed as “did not differ” and the “sensitivity … compared with parental strain” value was “did not differ in sensitivity”. In addition, in the assay with P. rhodozyma [2], the “killing of naturally occurring P. rhodozyma by inhibitors of electron transport” value was “relatively insensitive”.
